Data set [1] relates to NCI-H358 (lung cancer) cells. Briefly: Proliferation test method 1 (2D, MTT), NCI-H358. In kind it is cell-based. To be noted: Homo sapiens, 5-7 days, read-out: IC50 proliferation inhibitory activity against NCI-H358. As to the method:
(§1) Test method 1 (2D):NCI-H358 (lung cancer) and MiaPaca-2 cells (pancreatic cancer) cells (100 µL/well, 20,000 cells/mL) were inoculated in 96-well culture plates supplemented with 10% fetal bovine serum and 1% penicillin/streptomycin sulfate, respectively.Using 0.5% dimethyl sulfoxide as a blank control, cells were treated with a solution of the compound to be tested at a starting concentration of 10 µM, tripled diluted testing solution of the compound in eight gradients were used to treat cells, and then incubated in a 5% CO2 incubator for a certain period of time (5-7 days).At the end of incubation, 10 µL of MTT stock solution (5 mg/mL) was added to each well.The culture plates were incubated at 37° C. for 4 h and then the medium was removed.Dimethyl sulfoxide (100 µL) was added to each well and then shaken sufficiently. The absorbance of the product formazanwas measured at 570 nm on the Thermo Scientific Varioskan Flash multimode reader.IC50 values were obtained by fitting dose-response data into a three-parameter nonlinear regression model using GraphPad Prism 6.0 software.

For data set [2], the system named is phosphorylated ERK levels of NCI-H358. Briefly: ERK phosphorylation (western blot), H358. In kind it is cell-based. To be noted: Homo sapiens, 3 h. As to the method:
(§2) Test method 3 (ERK phosphorylation): Miapaca-2 or H358 cells were inoculated at certain concentrations in 96-well plates and incubated overnight at 37° C., 5% CO2 in a cell culture incubator, and serial dilutions of the test compound (5 concentrations, 3-fold dilution) were added to the plates the next day for 24 h (Miapaca-2) or 3 h (H358), then lysis solution containing protease and phosphatase inhibitor were added to lyse the cells to extract proteins and western blot method was used to detect the level of p-ERK.
A general note: In western blotting, separated proteins are transferred to a membrane and probed.

The subject of data set [3] is phosphorylated ERK levels of MiaPaca-2. Briefly: ERK phosphorylation (western blot), MiaPaca-2. To be noted: Homo sapiens, MIA PaCa-2, 24 h. The class given is cell-based. As to the method:
as §2

Another data set addresses T1, KRAS^G12C/SOS1 (Homo sapiens, UniProt P01116, G12C).
T1 construct: purchased CisBio
Briefly: KRAS^G12C/SOS1 protein-protein interaction Binding assay (CisBio kit). The settings on record: class symbols. As to the method:
CisBio’s KRAS^G12C/SOS1 kit was used to test the efficacy of the compound on inhibiting the protein-protein interaction between SOS1 and KRAS^G12Cby Binding assay.Results were expressed as IC50values.
Test methods: (1) the test compound was tested at a concentration of 1000 nM. Diluted to 3-fold diluted compound of a 200-fold final concentration of 100% DMSO solution in a 384-well plate at 10 concentrations. 50 nL of 200-fold final concentration of compound was transferred to the destination plate 384 well plate using a dispenser Echo 550.50 nL of 100% DMSO was added to the negative control wells and positive control wells; (2) 4-fold final concentration of Tag1 SOS1 solution was prepared using Diluent buffer; (3) 2.5 µL of 4-fold final concentration of Tag1 SOS1 solution was added to the 384-well plate; (4) 4-fold final concentration of Tag2 KRAS^G12C solution was prepared using Diluent buffer; (5) 2.5 µL of 4-fold final concentration of Tag2 KRAS^G12C solution was added to compound wells and positive control wells, respectively; 2.5 µL of diluent buffer was added to negative control wells; (6) the 384-well plate was centrifuged at 1000 rpm for 30 seconds, shaken and mixed, and incubated at room temperature for 15 min; (7) 1-fold final concentration of Anti Tag1 TB3+ solution and 1-fold final concentration of Anti Tag2 XL665 solution were prepared with Detection buffer, and 5 µL of the mixture was added to each well after mixing the two solutions; (8) the 384-well plate was centrifuged at 1000 rpm for 30 seconds, shaken and mixed, and incubated at room temperature for 120 minutes; (9) the Envision enzyme marker was used to read
Em665/620; (10) data analysis, calculation formula; where Min signal is the mean value of negative control wells, Max signal is the mean value of positive control wells.The log value of concentration was used as the X-axis and the percentage inhibition as the Y-axis to fit the quantitative efficacy curve using the log(inhibitor) vs. response Variable slope of the quantitative efficacy curve of the analytical software GraphPad Prism 5 to derive the IC50 value of each compound on the enzyme activity.The fitting formula was: Y=Bottom+(Top Bottom)/(1+10^A((LogIC50X)^∗ HillSlope)).

Data set [4] is described as follows: Metabolic stability assay, human liver microsomes. To be noted: human liver microsomes 0.5 mg/mL, 1 µM compound, read-out: Liver microsomal stability (T½ /min) human. The class given is in vitro ADME. As to the method:
(§3) Metabolic stability assay: A warm incubation for metabolic stability was performed with a system of 150 µL of liver microsomes (final concentration 0.5 mg/mL) containing NADPH (final concentration 1 mM), 1 µM of the test compound and positive control midazolam or negative control atenolol, and the reaction was terminated with acetonitrile containing tinidazole at 0 min, 5 min, 10 min and 30 min, respectively. The reaction was vortexed for 10 min and centrifuged at 15000 rmp for 10 min, and 50 µL of supernatant was taken into the 96-well plate for sampling. The metabolic stability of the compound was calculated by measuring the relative reduction of the drugs.
In general terms: Liver microsomes are a subcellular fraction often used to study metabolism.

Data set [5] is described as follows: Metabolic stability assay, monkey liver microsomes. In kind it is in vitro ADME. To be noted: monkey liver microsomes 0.5 mg/mL, 1 µM compound, read-out: Liver microsomal stability (T½ /min) monkey. As to the method:
as §3

Data set [6] can be described thus: Metabolic stability assay, mouse liver microsomes. The class given is in vitro ADME. To be noted: mouse liver microsomes 0.5 mg/mL, 1 µM compound, read-out: Liver microsomal stability (T½ /min) Mouse. As to the method:
as §3

The nature of data set [7]: Metabolic stability assay, rat liver microsomes. The class given is in vitro ADME. The settings on record: rat liver microsomes 0.5 mg/mL, 1 µM compound, read-out: Liver microsomal stability (T½ /min) Rat. As to the method: as §3
The subject of data set [8] is MiaPaca-2 cells (pancreatic cancer). The data set is described as follows: Proliferation test method 1 (2D, MTT), MiaPaca-2. The settings on record: 5-7 days, read-out: IC50/nM proliferation inhibitory activity on MiaPaca-2 cells. In kind it is cell-based. As to the method:
as §1

A further data set relates to NCI-H358 cells. Briefly: Proliferation test method 2 (3D, Cell Titer Glo 3D), NCI-H358. In kind it is cell-based. To be noted: Homo sapiens, NCI-H358, 96 h, read-out: IC50 cell proliferation inhibitory activity against NCI-H358. As to the method: (§4) Test method 2 (3D): The tumor cells in the logarithmic growth phase were diluted with culture solution to a certain concentration and inoculated on the 96-well plate on the ultra-low attachment surface, and the culture medium was 80 µL/well. Cells were incubated overnight at 37° C. in a humidity chamber. On the second day, a series of diluted test compounds (10 concentrations, 3 times dilution) were added to the plate, 20 µL/well, incubated in an incubator for 96h.The plates are removed and placed at room temperature and incubated with an equal volume of Cell Titer Glo®3D reagent for 1 h. The signal is detected by the En Vision™ plate reader. […] A four-parameter nonlinear regression curve was fitted to the percent inhibition for each concentration of the compound and the IC50 was calculated.
(In general: ATP-based viability assays read luminescence as a measure of living cells.)

Another data set concerns MiaPaca-2 cells. The data set is described as follows: Proliferation test method 2 (3D, Cell Titer Glo 3D), MiaPaca-2. In kind it is cell-based. To be noted: Homo sapiens, MIA PaCa-2, 96 h, read-out: IC50 cell proliferation inhibitory activity against MiaPaca-2. As to the method:
as §4

Read-outs that look alike come from different tables or passages of the source.

T1 sequence (P01116 1-188 isoform P01116-2 G12C): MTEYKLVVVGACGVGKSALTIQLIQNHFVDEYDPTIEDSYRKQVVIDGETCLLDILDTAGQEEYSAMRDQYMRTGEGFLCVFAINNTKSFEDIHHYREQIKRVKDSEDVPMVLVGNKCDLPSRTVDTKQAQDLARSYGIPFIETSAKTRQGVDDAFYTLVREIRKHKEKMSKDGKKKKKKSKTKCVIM

On to `C=CC(=O)N1CCN(c2nc(OC[C@@H]3CCCN3C)nc3c(F)c(-c4ccc(F)c5sc(N)nc45)c(Cl)cc23)CC1` [Example 1, 1-(4-(7-(2-Amino-7-Fluorobenzo [d] Thiazol-4-yl) -6-Chloro-8-Fluoro-2-(((S)-1-Methylpyrrolin-2-yl) Methoxy) Quinazolin-4-yl) Piperazin-1-Yl) Prop-2-En-1-One], for which the IC50 was below 100 nM in [1], below 500 nM in data set [2], below 500 nM in [3] and below 50 nM at KRAS^G12C/SOS1. In data set [4], the half-life at 1 µM was above 30 min.

As for `C=CC(=O)N1CC2C(=O)N(C)c3cnc4c(F)c(-c5c(O)cccc5F)c(Cl)cc4c3N2CC1C` (single isomer, unassigned) [Comparative Compound 2-1, reference compound], the half-life at 1 µM in data set [5] is 42 min; in data set [6], 47 min; in data set [4] it was 54 min; in data set [7] it was 41 min. At KRAS^G12C/SOS1, this compound came in with an IC50 of 50 to 200 nM.

In the case of `C=C(F)C(=O)N1CCN(c2c(C#N)c(OC[C@@H]3CCCN3C)nc3c(F)c(-c4ccc(F)c5sc(N)nc45)c(Cl)cc23)CC1` [Example 14], the IC50 is 0.9 nM in data set [8] (Homo sapiens, MIA PaCa-2, 2D) and 50 to 200 nM on KRAS^G12C/SOS1. Besides, the half-life at 1 µM in [5], in data set [6] and in data set [4] was above 30 min throughout.

Take `C=CC(=O)N1CCN(c2c(C#N)c(OCCN(C)C)nc3c(F)c(-c4ccc(F)c5sc(N)nc45)c(Cl)cc23)CC1` [Example 20, 4-(4-Acryloyl Piperazin-1-yl)-7-(2-Amino-7-Fluorobenzo [d] Thiazol-4-yl) -6-Chloro-2-(2-(Dimethylamino) Ethoxy)-8-Fluoroquinolin-3 -Cyano]: the IC50 is below 100 nM in [1]; below 500 nM in data set [2]; below 500 nM in [3]; below 200 nM in the data set on NCI-H358 cells; below 50 nM at KRAS^G12C/SOS1; below 200 nM in the data set with MiaPaca-2 cells. Moreover, the half-life at 1 µM in [5], in data set [6] and in [7] was above 30 min in each case.

As to `C=CC(=O)N1CCN(c2c(C#N)cnc3c(F)c(-c4ccc(F)c5sc(N)nc45)c(Cl)cc23)[C@@H](C)C1` [Example 10, 4-((S)-4-Acryloyl-2-Methylpiperazin-1-yl)-7-(2-Amino-7-Fluorobenzo[d]Thiazol-4-yl)-6-Chloro-8-Fluoroquinolin-3-Cyano], the IC50 in data set [8] (2D) is 57.2 nM; in data set [8] (Homo sapiens, MIA PaCa-2, 2D), below 100 nM; in data set [1], below 100 nM; in data set [2], below 500 nM; in data set [3], below 500 nM; in the data set with NCI-H358 cells, below 200 nM. In addition, the IC50 on KRAS^G12C/SOS1 is 50 to 200 nM; with MiaPaca-2 cells, below 200 nM.

On to `C=CC(=O)N1CCN(c2nc(OC[C@@H]3CCCN3C)nc3c(F)c(-c4ccc(F)c5sc(N)nc45)c(Cl)cc23)[C@@H](C)C1` [Example 23, 1-((3S)-4-(7-(2-Amino-7-Fluorobenzo [d]thiazol-4-yl) -6-Chloro-8-Fluoro-2-(((S)-1-Methylpyrrolin-2-yl) Methoxy) Quinazolin-4-yl)-3-Methylpiperazin-1-yl) Prop-2-En-1-One], for which the IC50 was 1.2 nM in [8] (Homo sapiens, MIA PaCa-2, 2D) and below 50 nM at KRAS^G12C/SOS1. Besides, the half-life at 1 µM in data set [5] and in [7] was above 30 min throughout.

For `C=CC(=O)N1CCN(c2nc(OCCN(C)C)nc3c(F)c(-c4ccc(F)c5sc(N)nc45)c(Cl)cc23)CC1` [Example 5], the IC50 in data set [1] is below 100 nM; in data set [2], below 500 nM; in [3], below 500 nM; in the data set on NCI-H358 cells it was below 200 nM; at KRAS^G12C/SOS1, below 50 nM; in the data set with MiaPaca-2 cells, below 200 nM.

Values taken from US20230174526A1, “BENZOTHIAZOLYL BIARYL COMPOUND, AND PREPARATION METHOD AND USE” (SHANGHAI RINGENE BIOPHARMA CO., LTD., priority 2020, published 2023).
